By IC50 is commonly meant the point on the concentration scale where inhibition reaches its midpoint.

SMILES strings stand for the structures. The source made the active and inactive calls. Unless noted, no cut-off for these calls is given here.

This note sets out measurements from ChEMBL document CHEMBL4673385, “Discovery of Potent Inhibitors of Streptococcus mutans Biofilm with Antivirulence Activity” (ACS Med Chem Lett, 2021).

For assay [1], the system named is Streptococcus mutans. Kind of assay: Antibiofilm activity against Streptococcus mutans UA159 assessed as inhibition of biofilm formation by serial dilution method. It is filed as functional, organism-based. Particulars: Streptococcus mutans, UA159; read-out: IC50.
Assay [2] addresses T1, Glucosyltransferase-S (Streptococcus mutans serotype c (strain ATCC 700610 / UA159)) (UniProt P49331).
T1 sequence (whole entry): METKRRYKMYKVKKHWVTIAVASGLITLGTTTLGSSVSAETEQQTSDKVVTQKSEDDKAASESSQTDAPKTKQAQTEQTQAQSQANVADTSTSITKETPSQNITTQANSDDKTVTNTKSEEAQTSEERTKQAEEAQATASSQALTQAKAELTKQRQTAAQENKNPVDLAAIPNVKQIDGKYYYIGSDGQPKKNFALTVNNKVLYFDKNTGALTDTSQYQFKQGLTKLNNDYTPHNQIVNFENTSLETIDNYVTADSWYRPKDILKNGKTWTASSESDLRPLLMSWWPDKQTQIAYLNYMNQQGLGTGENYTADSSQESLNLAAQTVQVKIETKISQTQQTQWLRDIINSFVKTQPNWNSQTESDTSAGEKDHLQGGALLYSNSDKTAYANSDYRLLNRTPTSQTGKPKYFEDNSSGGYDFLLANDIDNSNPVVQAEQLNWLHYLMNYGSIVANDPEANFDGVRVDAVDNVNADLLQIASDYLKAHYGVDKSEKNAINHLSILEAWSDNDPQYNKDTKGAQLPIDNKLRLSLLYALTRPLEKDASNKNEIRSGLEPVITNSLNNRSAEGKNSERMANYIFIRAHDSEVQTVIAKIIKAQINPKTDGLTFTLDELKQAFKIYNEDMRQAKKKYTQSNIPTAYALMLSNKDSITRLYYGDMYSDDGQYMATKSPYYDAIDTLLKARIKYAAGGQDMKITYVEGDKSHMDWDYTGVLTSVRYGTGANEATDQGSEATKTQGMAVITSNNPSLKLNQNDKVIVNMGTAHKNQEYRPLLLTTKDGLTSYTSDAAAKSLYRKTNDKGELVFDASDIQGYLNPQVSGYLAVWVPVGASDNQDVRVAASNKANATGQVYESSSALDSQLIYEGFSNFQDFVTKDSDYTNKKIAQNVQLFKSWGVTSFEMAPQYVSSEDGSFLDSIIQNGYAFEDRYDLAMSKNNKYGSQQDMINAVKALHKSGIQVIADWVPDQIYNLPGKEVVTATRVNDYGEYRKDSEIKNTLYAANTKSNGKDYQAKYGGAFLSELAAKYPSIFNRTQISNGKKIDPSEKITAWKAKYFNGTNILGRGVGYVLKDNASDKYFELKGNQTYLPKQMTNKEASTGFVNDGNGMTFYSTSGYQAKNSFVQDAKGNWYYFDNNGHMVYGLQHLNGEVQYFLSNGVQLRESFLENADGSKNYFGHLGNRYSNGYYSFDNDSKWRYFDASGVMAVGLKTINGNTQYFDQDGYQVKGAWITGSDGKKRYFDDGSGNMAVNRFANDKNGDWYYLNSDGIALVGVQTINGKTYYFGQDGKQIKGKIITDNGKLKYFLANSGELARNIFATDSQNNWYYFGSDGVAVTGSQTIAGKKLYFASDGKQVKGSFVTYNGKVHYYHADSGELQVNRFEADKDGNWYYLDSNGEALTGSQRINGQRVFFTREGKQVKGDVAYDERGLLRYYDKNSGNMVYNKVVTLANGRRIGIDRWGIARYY
Put plainly: Inhibition of GtfD in Streptococcus mutans UA159 assessed as reduction in glucans level by Coomassie blue dye based SDS-PAGE analysis.

For assay [3], the target named is T2, Glucosyltransferase-I (Streptococcus mutans serotype c (strain ATCC 700610 / UA159)) (UniProt P08987).
T2 sequence (whole entry): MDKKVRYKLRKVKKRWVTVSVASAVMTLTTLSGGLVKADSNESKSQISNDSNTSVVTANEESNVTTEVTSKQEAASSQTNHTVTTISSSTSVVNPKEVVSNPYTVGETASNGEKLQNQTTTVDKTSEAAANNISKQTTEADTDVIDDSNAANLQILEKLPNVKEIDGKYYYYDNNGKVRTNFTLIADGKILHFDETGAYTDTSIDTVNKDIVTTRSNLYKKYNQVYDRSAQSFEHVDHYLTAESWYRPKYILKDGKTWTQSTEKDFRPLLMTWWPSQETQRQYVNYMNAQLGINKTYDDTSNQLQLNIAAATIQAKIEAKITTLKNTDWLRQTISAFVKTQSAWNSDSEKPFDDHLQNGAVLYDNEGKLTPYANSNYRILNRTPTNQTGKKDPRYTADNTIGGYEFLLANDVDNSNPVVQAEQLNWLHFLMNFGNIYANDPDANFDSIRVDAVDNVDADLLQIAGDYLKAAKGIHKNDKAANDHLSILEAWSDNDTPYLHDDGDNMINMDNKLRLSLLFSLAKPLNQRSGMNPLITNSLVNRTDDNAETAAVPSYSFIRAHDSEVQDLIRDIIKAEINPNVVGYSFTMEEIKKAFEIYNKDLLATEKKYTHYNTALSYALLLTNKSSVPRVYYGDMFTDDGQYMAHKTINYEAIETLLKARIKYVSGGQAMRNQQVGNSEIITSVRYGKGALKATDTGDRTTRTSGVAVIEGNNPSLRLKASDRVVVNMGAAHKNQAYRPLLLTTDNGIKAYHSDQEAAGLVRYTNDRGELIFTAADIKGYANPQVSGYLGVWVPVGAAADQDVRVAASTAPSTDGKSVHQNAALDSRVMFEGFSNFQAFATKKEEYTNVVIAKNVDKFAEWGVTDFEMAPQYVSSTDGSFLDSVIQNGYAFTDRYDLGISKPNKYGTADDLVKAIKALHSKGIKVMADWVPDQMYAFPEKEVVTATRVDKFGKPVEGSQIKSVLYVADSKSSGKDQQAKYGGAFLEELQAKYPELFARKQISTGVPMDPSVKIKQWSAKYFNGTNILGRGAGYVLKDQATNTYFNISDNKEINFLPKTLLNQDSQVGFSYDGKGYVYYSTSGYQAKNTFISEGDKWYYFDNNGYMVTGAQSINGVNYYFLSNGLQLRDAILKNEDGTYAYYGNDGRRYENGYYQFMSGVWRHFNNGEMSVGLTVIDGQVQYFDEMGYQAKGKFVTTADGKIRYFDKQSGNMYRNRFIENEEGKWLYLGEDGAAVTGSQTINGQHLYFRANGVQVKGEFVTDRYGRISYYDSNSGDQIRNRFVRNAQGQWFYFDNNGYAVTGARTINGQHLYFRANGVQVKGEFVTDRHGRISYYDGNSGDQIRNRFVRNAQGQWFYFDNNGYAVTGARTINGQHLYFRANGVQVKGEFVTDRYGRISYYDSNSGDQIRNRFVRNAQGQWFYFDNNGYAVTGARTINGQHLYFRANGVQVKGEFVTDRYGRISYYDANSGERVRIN
Kind of assay: Inhibition of GtfB in Streptococcus mutans UA159 assessed as reduction in glucans level by Coomassie blue dye based SDS-PAGE analysis.

Assay [4] relates to Streptococcus mutans. Put plainly: Bactericidal activity against Streptococcus mutans UA159 assessed as reduction in bacterial growth at 100 uM after 24 hrs. It is filed as functional, organism-based.

`NC(=O)c1cccc(NC(=O)c2cnc3ccccc3c2)c1`: the IC50 in the assay on Streptococcus mutans [1] stood at 8.6 µM. The inhibition result in assay [2] and in assay [3] was “Active” throughout. Also, the result with Streptococcus mutans [4] was inactive.

In the case of `NC(=O)c1ccccc1NC(=O)c1cc2cc([N+](=O)[O-])ccc2s1`, the IC50 with Streptococcus mutans [1] came out at 16.7 µM. In addition, the inhibition result in assay [2] and in assay [3] was “Active” throughout. Also, in the assay on Streptococcus mutans [4], the result was inactive.

For `CC(C)(C)OC(=O)NCc1ccccc1NC(=O)c1cnc2ccccc2c1`, the 50% inhibitory concentration (IC50) in the assay on Streptococcus mutans [1] turned out to be 52.8 µM. Further, the inhibition result in assay [2] and in assay [3] was “Active” in each case. For the same compound, the result in the assay on Streptococcus mutans [4] was inactive.

`O=C(c1ccc(F)cc1)c1ccc(-c2[nH]c(-c3ccc([N+](=O)[O-])cc3O)nc2-c2ccccc2)cc1`: the inhibition result in assay [2] and in assay [3] was “Active” in each case.

`NC(=O)c1ccccc1NC(=O)c1cnc2ccccc2c1`: the IC50 in the assay with Streptococcus mutans [1] was found to be 15.3 µM. Further, the inhibition entry in assay [2] and in assay [3] was “Active” throughout. The result in the assay with Streptococcus mutans [4] was inactive.

For the compound `COC(=O)c1ccc(NC(=O)c2cc3cc([N+](=O)[O-])ccc3s2)cc1`, the 50% inhibitory concentration (IC50) in the assay with Streptococcus mutans [1] worked out at 9.6 µM. Further, the inhibition entry in assay [2] and in assay [3] was “Active” in each case. Besides, the outcome in the assay on Streptococcus mutans [4] was inactive.

Turning to `CC(C)(C)OC(=O)NCc1ccccc1NC(=O)c1cc2cc([N+](=O)[O-])ccc2s1`, in the assay with Streptococcus mutans [1], the IC50 turned out to be 51.5 µM. Moreover, the inhibition result in assay [2] and in assay [3] was “Active” each time. In the assay on Streptococcus mutans [4], the result was inactive.
